Read-outs that look alike come from different tables or passages of the source.
Legend:
RSVA 689 = conditions: human respiratory syncytial virus
human polymerase β = human polymerase β (Homo sapiens, UniProt P06746); assay: Human polymerase inhibition in vitro (data not shown); format: biochemical; conditions: up to 1 μM
human polymerase α = human polymerase α (Homo sapiens, UniProt P09884); assay: as above; format: biochemical; conditions: up to 1 μM
human polymerase γ = human polymerase γ (Homo sapiens, UniProt P54098); assay: as above; format: biochemical; conditions: up to 1 μM
Chain of human polymerase γ (P54098 whole entry): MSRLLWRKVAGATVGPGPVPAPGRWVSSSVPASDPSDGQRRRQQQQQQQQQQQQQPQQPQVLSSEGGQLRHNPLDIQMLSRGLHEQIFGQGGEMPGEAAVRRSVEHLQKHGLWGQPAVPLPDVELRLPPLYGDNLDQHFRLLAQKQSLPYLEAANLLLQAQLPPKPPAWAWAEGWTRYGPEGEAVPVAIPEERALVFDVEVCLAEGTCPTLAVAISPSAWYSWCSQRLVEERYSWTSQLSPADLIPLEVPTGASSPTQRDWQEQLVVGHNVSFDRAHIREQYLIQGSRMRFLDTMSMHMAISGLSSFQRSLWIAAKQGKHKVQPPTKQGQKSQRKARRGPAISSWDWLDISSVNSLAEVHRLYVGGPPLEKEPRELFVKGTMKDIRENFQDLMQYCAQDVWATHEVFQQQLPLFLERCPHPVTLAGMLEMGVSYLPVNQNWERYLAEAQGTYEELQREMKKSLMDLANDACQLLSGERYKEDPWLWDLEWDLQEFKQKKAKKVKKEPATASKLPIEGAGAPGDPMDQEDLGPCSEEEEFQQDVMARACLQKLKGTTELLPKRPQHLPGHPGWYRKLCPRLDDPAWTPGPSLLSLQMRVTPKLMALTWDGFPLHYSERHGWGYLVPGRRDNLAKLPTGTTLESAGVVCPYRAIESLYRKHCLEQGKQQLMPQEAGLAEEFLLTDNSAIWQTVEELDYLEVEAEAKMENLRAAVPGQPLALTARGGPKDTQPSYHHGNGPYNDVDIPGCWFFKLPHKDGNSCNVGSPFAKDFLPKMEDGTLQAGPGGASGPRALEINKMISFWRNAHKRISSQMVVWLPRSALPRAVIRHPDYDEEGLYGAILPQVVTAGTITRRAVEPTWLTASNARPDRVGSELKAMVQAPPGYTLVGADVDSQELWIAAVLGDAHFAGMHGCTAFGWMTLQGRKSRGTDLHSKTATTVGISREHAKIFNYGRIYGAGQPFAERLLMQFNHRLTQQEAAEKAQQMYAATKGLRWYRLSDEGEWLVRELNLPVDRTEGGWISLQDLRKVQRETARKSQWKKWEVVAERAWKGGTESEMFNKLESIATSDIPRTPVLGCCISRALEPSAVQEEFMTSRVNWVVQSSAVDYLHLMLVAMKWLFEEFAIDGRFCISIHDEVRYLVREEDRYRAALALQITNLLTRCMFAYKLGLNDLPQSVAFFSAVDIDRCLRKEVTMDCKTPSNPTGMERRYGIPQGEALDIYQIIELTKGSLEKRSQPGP

[1] = Cell viability in HEp-2 cells (resazurin); conditions: human, HEp-2 cells
HEp-2 cells = assay: Cell viability in HEp-2 cells (resazurin); conditions: concentrations up to 14 μM
RSV A2 [2] = assay: RSV A2 infection of ALI-cultured human airway epithelial cells, plaque assay of apical wash; format: cell-based, respiratory syncytial virus; conditions: MOI 0.01
Procedure: On the day of infection (day 0), the apical surface of each insert was washed once with 300 μl of sterile PBS and the inserts were then transferred to new 24-well plates containing 780 μl of fresh MucilAir culture medium (Epithelix Sàrl). […] The virus inoculum was removed with a pipette and inserts were washed twice with 300 μl of sterile PBS. A day 0 sample was harvested by adding 300 μl of sterile PBS to the apical surface of each well for 5 min. The 300-μl sample was then removed and transferred to 0.5-ml tubes containing 100 μl of 50% sucrose dissolved in PBS, and the tubes were stored at -80°C. This harvesting procedure was repeated daily until day 7. PC786 was dosed apically onto MucilAir inserts. […] The dosing regimen was performed daily on day 0 to day 6 following each sample collection. On day 5, the basal medium was removed from every well and replenished with fresh MucilAir culture medium as a necessary maintenance step for ALI culture cells. Virus titer in the apical wash samples was determined by plaque assay. […] Cells were washed twice with PBS before 150 μl of secondary antibody (goat anti-mouse HRP conjugate [Dako Ltd., Ely, UK; P044701-2]), diluted 1:400 in blocking buffer, was added to cells for 1 h at RT, with shaking. […] Each well received 150 μl of development substrate (sigmaFAST […]; Sigma-Aldrich) until plaques were visible. Plaques were counted by eye and confirmed using light microscopy.

RSV A USU\v1225 = assay: CPE 2, neutral red 96-well CPE assay in HEp-2; format: cell-based; conditions: human respiratory syncytial virus
Procedure: (§1) For RSV A 2001/3-12, 1998/3-2, and USU⃥v1225, CPE was induced in HEp-2 cells for 7 days and the plates were then stained with neutral red dye for approximately 2 h. The intracellular incorporated dye was extracted in 50:50 Sorensen citrate buffer-ethanol and the absorbance read on a spectrophotometer. The optical density (OD) of test wells was converted to percentage of cell and virus controls. […] The virus inocula were ∼63 50% cell culture infectious doses (CCID50) per well for 2001/3-12, ∼40 CCID50/well for 1998/3-2, and ∼32 CCID50/well for USU\v1225. This assay was conducted in Utah State University (Logan, UT).

RSV A 2001/3-12 = assay: CPE 2, neutral red 96-well CPE assay in HEp-2; format: cell-based; conditions: human respiratory syncytial virus
Procedure: as §1

RSV A 1998/3-2 = assay: CPE 2, neutral red 96-well CPE assay in HEp-2; format: cell-based; conditions: human respiratory syncytial virus
Procedure: as §1

HIV-1 (IIIB strain) = assay: microbe, parasite or virus in culture; format: cell-based, human immunodeficiency virus type 1; conditions: HIV-1, CEM-SS
RSV A Long [3] = conditions: human respiratory syncytial virus
RSV A Long [4] = assay: CPE assay in HEp-2 cells (resazurin); format: cell-based; conditions: human respiratory syncytial virus, laboratory
RSV A2 [5] = assay: RSV F protein cell-based ELISA in BEAS-2B cells, washout / nonwashout; conditions: human respiratory syncytial virus, read-out: IC50, F protein expressed on cell surfaces
Procedure: Approximately 72 h after BEAS-2B cells were seeded in 96-well plates (at 4 × 10^4/ml; 100 μl/well), the medium in the plates was removed and replaced with 200 μl of fresh LHC-8 medium. […] For nonwashout plates, the compounds and DMSO (1 μl/well) were applied immediately after infection. On day 3 postinfection, supernatant was aspirated and the cells were fixed with 4% formaldehyde (100 μl in PBS solution) for 20 min at room temperature (RT), washed three times with wash buffer (WB) (200 μl; PBS containing 0.05% Tween 20), and incubated with blocking buffer (100 μl; 5% bovine serum albumin [BSA] in wash buffer) for 1 h. […] Abcam plc, Cambridge, UK). After a washing, cells were incubated with a horseradish peroxidase (HRP)-conjugated anti-mouse IgG antibody (50 μl/well; 1:2,000, Abcam) for 1 h. Tetramethylbenzidine (TMB) substrate (50 μl) was then added after two washings with WB and one with PBS, and the reaction was stopped by the addition of aqueous sulfuric acid (2 N; 50 μl/well). The resultant signal was determined colorimetrically (OD at 450 nm [OD450] with a reference wavelength of 655 nm) in a microplate reader (Multiskan FC; Thermo Fisher Scientific). Cells were then washed, and 0.5% crystal violet solution ([…]) was applied for 30 min. […] The measured F protein signals (OD450 − OD655 readings) were corrected for cell number (OD595 readings) by dividing the OD450–655 by the OD595 readings.

[6] = test system: Measles virus (Edmonton strain); assay: microbe, parasite or virus in culture; format: cell-based; conditions: MRC5

Chain of human polymerase α (P09884 whole entry): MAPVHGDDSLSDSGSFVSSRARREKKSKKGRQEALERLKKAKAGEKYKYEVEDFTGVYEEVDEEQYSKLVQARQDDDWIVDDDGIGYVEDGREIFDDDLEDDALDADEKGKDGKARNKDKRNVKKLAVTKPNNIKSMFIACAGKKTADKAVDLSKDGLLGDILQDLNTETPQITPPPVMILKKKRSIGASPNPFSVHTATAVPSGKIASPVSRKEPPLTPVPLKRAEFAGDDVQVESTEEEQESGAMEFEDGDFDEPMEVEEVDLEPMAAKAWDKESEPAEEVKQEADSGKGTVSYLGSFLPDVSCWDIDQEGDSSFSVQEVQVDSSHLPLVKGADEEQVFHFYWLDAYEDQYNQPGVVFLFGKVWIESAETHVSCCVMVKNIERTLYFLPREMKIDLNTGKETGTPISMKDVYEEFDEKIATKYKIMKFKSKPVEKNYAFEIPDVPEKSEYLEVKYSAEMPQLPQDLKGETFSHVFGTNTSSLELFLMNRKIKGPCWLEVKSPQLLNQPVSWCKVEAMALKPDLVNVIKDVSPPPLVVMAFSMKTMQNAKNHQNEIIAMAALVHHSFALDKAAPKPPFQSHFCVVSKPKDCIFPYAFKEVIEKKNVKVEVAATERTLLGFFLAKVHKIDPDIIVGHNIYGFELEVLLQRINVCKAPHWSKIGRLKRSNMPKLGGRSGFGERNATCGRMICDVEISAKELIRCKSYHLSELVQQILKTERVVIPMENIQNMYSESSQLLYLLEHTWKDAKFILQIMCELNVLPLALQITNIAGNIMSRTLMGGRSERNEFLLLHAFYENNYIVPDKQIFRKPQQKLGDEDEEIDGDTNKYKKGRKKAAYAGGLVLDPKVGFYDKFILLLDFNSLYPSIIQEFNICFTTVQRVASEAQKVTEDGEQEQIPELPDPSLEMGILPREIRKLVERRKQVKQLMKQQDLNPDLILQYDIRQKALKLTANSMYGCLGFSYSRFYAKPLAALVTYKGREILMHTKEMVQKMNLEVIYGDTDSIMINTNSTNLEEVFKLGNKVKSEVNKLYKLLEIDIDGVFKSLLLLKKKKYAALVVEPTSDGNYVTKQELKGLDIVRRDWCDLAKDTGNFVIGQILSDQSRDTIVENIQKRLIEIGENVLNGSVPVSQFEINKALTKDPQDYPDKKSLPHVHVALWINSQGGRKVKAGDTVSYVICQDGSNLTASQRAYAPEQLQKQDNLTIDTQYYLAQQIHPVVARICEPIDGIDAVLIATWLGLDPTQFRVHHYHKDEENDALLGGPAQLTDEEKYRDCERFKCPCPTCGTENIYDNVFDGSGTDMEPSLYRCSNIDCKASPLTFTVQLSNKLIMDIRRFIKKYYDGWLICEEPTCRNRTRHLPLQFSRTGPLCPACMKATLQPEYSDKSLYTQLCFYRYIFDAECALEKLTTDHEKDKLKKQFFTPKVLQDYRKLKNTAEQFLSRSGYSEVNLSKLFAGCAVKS

Cc1cnc(N2CC3(CCOCC3)C2)c(C(=O)Nc2ccc(C(=O)N3CCc4cc(C(=O)Nc5c(C)cccc5F)sc4-c4ccccc43)cc2)c1 [PC786, N-(2-fluoro-6-methylphenyl)-6-(4-(5-methyl-2-(7-oxa-2-azaspiro[3.5]nonan-2-yl)nicotinamido)benzoyl)-5,6-dihydro-4H-benzo[b]thieno[2,3-d]azepine-2-carboxamide]
IC50 (RSVA 689; HEp-2, read-out: RSV titre in supernatant IC50 (0.3 Log PFUe reduction) (converted)): 0.54 nM | IC90 (RSVA 689; HEp-2, read-out: RSV titre in supernatant IC90 (1 Log PFUe reduction) (converted)): 1.12 nM | inhibitory effects on human polymerase β (human polymerase β): no measurable inhibitory effects | inhibitory effects on human polymerase α (human polymerase α): no measurable inhibitory effects | inhibitory effects on human polymerase γ (human polymerase γ): no measurable inhibitory effects | CC50 [1]: > 14000 nM | Cell viability (HEp-2 cells): did not affect cell viability | viral replication in apical wash (plaque assay) (RSV A2 [2]; 5.6 nM apical once daily day 0 to day 6): did not peak until day 5 | viral replication in apical wash (plaque assay) (RSV A2 [2]; 28 nM apical once daily day 0 to day 6): viral replication was not detected until day 4 | viral quantity in apical wash (plaque assay) (RSV A2 [2]; 140 nM apical once daily day 0 to day 6): below detectable limits | IC50 (RSV A USU\v1225): 1.3 nM | IC50 (RSV A 2001/3-12): 3.2 nM | IC50 (RSV A 1998/3-2): 2.5 nM | IC90 or IC95 (HIV-1 (IIIB strain)): >14000 nM | IC50 (HIV-1 (IIIB strain); Human immunodeficiency virus 1, IIIB): > 14000 nM | IC50 (RSV A Long [3]; HEp-2, read-out: PCR IC50 (0.3 Log PFUe reduction) (converted)): 2.65 nM | IC90 (RSV A Long [3]; HEp-2, read-out: PCR IC90 (1 Log PFUe reduction) (converted)): 3.45 nM | IC50 (RSV A Long [4]): 2.46 nM | IC90 (RSV A Long [4]): 3.25 nM | IC50 (RSV A2 [5]; 2 h exposure then 24-h washout before inoculation): 0.792 nM | IC50 (RSV A2 [5]; nonwashout (sustained presence of drug)): 0.129 nM | IC90 or IC95 [6]: >14000 nM | IC50 ([6]; Measles morbillivirus): > 14000 nM
